Experimental findings from ChEMBL document CHEMBL5291721, “A preclinical secondary pharmacology resource illuminates target-adverse drug reaction associations of marketed drugs” (Nat Commun, 2023) are described below.

Values joined by “and” are separate entries in the source; they are usually repeats but may differ in a detail not shown here. Equal entries are not always repeated.

One test has as its target T1, Adenosine receptor A3 (Homo sapiens, UniProt P0DMS8).
T1 sequence (P0DMS8 whole entry): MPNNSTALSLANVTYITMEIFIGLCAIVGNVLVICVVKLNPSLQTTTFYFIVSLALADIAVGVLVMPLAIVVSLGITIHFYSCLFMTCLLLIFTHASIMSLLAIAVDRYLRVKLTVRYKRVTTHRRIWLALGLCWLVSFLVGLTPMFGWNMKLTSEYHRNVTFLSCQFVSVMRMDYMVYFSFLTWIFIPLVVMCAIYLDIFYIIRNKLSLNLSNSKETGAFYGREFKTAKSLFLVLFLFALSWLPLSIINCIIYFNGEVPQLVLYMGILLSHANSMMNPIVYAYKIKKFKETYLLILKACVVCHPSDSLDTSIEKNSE

The target of another test is Vasopressin V2 receptor (Homo sapiens, UniProt P30518).
Chain of Vasopressin V2 receptor (P30518 whole entry): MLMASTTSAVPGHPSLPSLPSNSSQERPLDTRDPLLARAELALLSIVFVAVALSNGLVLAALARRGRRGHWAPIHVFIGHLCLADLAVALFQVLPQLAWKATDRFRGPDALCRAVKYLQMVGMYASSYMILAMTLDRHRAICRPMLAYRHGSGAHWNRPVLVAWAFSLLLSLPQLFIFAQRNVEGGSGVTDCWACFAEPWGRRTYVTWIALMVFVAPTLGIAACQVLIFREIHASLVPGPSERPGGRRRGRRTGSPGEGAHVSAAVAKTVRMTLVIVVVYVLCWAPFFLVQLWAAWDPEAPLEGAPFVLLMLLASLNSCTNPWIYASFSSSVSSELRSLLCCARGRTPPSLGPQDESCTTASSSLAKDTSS
Test [1] has as its target T2, Muscarinic acetylcholine receptor M2 (Homo sapiens, UniProt P08172).
T2 sequence (P08172 whole entry): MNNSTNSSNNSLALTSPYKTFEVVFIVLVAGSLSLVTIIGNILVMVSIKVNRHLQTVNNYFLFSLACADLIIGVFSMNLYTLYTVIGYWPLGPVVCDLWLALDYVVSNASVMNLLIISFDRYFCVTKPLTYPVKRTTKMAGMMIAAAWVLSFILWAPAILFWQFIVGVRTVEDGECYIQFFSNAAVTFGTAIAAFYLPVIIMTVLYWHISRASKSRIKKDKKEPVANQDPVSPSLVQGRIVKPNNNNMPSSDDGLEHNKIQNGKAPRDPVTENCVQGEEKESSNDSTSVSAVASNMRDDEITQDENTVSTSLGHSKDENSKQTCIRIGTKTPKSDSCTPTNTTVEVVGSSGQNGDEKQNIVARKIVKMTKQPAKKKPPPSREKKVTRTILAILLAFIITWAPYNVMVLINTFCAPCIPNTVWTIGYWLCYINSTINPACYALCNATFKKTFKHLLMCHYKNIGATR
The test is classed as functional, cell-based.

The target in test [2] is T3, Prostaglandin G/H synthase 1 (Rattus norvegicus, UniProt Q63921).
T3 sequence (Q63921 whole entry): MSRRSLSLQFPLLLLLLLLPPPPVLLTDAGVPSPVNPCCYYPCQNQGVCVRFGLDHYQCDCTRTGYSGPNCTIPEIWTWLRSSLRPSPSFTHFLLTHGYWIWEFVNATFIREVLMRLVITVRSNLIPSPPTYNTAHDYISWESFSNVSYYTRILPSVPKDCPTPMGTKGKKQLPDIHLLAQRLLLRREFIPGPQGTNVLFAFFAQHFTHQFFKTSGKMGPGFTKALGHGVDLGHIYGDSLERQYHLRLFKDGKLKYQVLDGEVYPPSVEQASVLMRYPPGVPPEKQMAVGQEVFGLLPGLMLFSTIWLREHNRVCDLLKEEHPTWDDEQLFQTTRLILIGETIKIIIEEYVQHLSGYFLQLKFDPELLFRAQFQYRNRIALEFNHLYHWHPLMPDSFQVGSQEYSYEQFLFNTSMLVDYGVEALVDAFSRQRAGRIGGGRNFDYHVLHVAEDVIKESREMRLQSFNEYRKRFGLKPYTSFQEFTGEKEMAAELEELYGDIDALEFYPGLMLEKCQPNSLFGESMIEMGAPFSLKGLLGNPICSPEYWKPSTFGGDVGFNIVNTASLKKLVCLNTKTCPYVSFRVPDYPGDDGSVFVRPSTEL
The test is classed as functional.

Test [3] has as its target Delta-type opioid receptor (Homo sapiens, UniProt P41143).
The target of a further test is T4, Progesterone receptor (Homo sapiens, UniProt P06401).
T4 sequence (P06401 whole entry): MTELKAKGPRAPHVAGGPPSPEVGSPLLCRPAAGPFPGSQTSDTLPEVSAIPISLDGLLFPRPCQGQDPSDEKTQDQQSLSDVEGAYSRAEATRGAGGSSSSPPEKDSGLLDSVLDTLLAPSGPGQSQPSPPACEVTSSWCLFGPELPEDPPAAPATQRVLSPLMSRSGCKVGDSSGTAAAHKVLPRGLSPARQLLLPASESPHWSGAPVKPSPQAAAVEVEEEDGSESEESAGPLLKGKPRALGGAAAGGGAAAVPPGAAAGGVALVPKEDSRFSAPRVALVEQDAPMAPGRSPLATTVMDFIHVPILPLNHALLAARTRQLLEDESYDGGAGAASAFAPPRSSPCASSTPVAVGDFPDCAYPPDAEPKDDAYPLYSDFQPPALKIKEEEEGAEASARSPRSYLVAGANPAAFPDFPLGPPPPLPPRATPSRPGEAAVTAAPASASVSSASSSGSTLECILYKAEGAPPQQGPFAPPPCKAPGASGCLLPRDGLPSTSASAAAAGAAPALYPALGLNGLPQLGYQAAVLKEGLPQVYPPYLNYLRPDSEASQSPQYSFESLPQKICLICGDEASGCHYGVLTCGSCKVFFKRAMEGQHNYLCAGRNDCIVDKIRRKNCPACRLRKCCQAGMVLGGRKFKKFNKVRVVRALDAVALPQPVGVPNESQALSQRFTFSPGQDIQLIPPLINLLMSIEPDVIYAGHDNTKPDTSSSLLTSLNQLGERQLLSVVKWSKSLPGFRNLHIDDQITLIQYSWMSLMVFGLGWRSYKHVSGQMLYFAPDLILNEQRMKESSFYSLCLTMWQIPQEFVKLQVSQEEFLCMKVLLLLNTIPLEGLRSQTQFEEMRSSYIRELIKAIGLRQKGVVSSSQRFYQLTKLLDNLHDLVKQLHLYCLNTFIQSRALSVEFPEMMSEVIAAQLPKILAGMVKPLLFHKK
The class given is functional.

The target of the next test is T5, B2 bradykinin receptor (Homo sapiens, UniProt P30411).
T5 sequence (P30411 whole entry): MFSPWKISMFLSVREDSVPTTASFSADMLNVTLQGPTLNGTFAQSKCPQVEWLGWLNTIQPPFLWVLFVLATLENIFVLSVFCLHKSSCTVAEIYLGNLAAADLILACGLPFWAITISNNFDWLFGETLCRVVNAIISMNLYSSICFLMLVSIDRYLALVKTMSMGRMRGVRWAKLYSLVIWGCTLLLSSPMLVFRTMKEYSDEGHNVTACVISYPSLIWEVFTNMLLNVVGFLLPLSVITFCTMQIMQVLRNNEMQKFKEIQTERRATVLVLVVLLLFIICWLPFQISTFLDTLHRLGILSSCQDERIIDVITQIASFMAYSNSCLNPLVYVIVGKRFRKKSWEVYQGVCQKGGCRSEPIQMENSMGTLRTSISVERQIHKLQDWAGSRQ

Test [4] addresses Neuronal acetylcholine receptor subunit alpha-4 (Homo sapiens, UniProt P43681).
For another test, the target named is Vasopressin V1a receptor (Homo sapiens, UniProt P37288).
Chain of Vasopressin V1a receptor (P37288 whole entry): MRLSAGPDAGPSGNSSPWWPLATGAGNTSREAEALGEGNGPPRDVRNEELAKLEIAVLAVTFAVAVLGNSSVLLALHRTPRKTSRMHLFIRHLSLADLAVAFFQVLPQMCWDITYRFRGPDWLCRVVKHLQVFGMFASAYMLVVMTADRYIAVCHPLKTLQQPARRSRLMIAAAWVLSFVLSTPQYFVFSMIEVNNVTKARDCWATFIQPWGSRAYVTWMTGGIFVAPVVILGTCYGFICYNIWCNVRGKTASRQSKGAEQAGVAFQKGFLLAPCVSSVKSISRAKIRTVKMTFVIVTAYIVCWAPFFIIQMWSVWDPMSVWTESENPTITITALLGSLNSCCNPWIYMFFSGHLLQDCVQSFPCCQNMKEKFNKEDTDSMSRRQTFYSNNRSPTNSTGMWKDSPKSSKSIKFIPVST
Also: assay procedure not described here.

Chain of Neuronal acetylcholine receptor subunit alpha-4 (P43681 whole entry): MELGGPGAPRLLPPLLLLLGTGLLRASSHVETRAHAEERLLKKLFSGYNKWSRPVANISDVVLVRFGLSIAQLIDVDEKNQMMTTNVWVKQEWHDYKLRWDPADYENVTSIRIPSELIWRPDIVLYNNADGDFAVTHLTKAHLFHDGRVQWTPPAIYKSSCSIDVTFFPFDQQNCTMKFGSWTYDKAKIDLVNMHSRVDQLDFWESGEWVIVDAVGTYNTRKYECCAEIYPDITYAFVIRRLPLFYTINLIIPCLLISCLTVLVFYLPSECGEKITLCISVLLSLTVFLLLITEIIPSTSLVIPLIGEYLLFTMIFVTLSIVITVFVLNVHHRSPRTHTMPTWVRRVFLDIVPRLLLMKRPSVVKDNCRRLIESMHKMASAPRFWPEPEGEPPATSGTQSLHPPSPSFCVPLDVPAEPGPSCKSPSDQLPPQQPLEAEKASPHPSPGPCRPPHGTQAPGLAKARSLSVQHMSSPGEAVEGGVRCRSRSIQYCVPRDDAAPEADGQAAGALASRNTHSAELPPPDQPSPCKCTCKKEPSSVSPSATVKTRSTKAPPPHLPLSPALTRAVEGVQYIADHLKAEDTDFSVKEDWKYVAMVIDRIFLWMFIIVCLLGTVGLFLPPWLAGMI
Chain of Delta-type opioid receptor (P41143 whole entry): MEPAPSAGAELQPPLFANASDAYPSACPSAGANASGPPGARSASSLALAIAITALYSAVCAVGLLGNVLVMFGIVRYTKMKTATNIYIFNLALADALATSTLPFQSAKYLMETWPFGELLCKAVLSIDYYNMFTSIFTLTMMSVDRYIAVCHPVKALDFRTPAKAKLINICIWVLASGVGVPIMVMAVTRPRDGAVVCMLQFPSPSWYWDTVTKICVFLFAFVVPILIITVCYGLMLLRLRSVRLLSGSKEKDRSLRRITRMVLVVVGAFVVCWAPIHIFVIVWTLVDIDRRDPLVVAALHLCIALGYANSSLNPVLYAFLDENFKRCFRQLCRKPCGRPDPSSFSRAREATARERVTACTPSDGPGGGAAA

Usually AC50 stands for the concentration at which the activity in the assay is half-maximal. A higher AC50 goes with activity only at high concentration. As to `C[C@](N)(Cc1ccc(O)c(O)c1)C(=O)O` [METHYLDOPA], the AC50 at Adenosine receptor A3 is more than 30 µM; at Vasopressin V2 receptor it was more than 10 µM; in test [1], more than 10 µM; in test [2], more than 30 µM; in test [3] it was more than 30 µM; at Progesterone receptor, more than 30 µM. The AC50 (at B2 bradykinin receptor; in test [4]) was more than 10 µM throughout.
`CC=CC(=O)N(CC)c1ccccc1C`: the AC50 at Adenosine receptor A3 is more than 10 µM; at Vasopressin V2 receptor, more than 10 µM; in [1] it was more than 10 µM; in test [2], more than 10 µM; in [3] it was more than 30 µM; at Progesterone receptor, more than 10 µM. For the same compound, the half-maximal activity concentration (AC50) (on B2 bradykinin receptor; in test [4]) was more than 10 µM in each case.
On to `O=C(NCCN1CCOCC1)c1ccc(Cl)cc1` [MOCLOBEMIDE], for which the half-maximal activity concentration (AC50) at Adenosine receptor A3 was more than 10 µM; on Vasopressin V2 receptor, more than 10 µM; in [1], more than 10 µM; in [2], more than 10 µM; in [3], more than 30 µM; on Progesterone receptor, more than 10 µM. Besides, the AC50 (on B2 bradykinin receptor; in test [4]) was more than 10 µM in each case.
As for `C[C@]12CC[C@H]3[C@@H](CCC4=CC(=O)CC[C@@]43C)[C@@H]1CC[C@@H]2O` [TESTOSTERONE], the AC50 at Adenosine receptor A3 was more than 10 µM; on Vasopressin V2 receptor, more than 10 µM; in [1], more than 10 µM; in [2], more than 10 µM; in test [3], more than 30 µM; on Progesterone receptor, 0.092 µM. In addition, the AC50 (at B2 bradykinin receptor; in [4]) was more than 10 µM throughout.
`Cc1ccc(S(=O)(=O)NC(=O)NN2CC3CCCC3C2)cc1` (centres undefined) [GLICLAZIDE]: the AC50 on Adenosine receptor A3 was more than 10 µM; at Vasopressin V2 receptor, more than 10 µM; in test [1], more than 10 µM; in [2], more than 10 µM; in [3] it was more than 30 µM; on Progesterone receptor it was more than 10 µM. In addition, the AC50 (on B2 bradykinin receptor; in test [4]) was more than 10 µM throughout.
As for `CCc1c(Cl)c(O)c(Cl)c(O)c1C(=O)O[C@H]1[C@H](O)[C@H](OC)[C@H](OC/C2=C\C=C\C[C@H](O)/C(C)=C/[C@H](CC)[C@@H](O[C@@H]3OC(C)(C)[C@@H](OC(=O)C(C)C)[C@H](O)[C@@H]3O)/C(C)=C/C(C)=C/C[C@@H]([C@@H](C)O)OC2=O)O[C@@H]1C` [FIDAXOMICIN], the concentration at half-maximal activity (AC50) at Vasopressin V1a receptor is more than 10 µM; at Adenosine receptor A3 it was 17.1 µM and > 30 µM; at Vasopressin V2 receptor, more than 30 µM; in test [2], more than 30 µM; in test [3], more than 30 µM; on Progesterone receptor it was more than 30 µM. Further, the AC50 on B2 bradykinin receptor is more than 30 µM; in test [4] it was more than 10 µM.
`CNC(C)CCC=C(C)C` (centres undefined) [ISOMETHEPTENE]: the AC50 (on Vasopressin V1a receptor; at Adenosine receptor A3; at Vasopressin V2 receptor; in test [2]; on Progesterone receptor; at B2 bradykinin receptor) was more than 30 µM each time. This compound yielded an AC50 in [4] of more than 30 µM.
Consider `CC(C)Cn1cnc2c(N)nc3ccccc3c21` [IMIQUIMOD], for which the concentration at half-maximal activity (AC50) on Adenosine receptor A3 was more than 30 µM; at Vasopressin V2 receptor, more than 10 µM; in test [1], more than 10 µM; in test [2], more than 30 µM; in test [3], more than 30 µM; at Progesterone receptor it was more than 10 µM. The AC50 (on B2 bradykinin receptor; in [4]) was more than 10 µM in each case.
`CCOC(=O)OC(C)OC1=C(C(=O)Nc2ccccn2)N(C)S(=O)(=O)c2ccccc21` (centres undefined) [AMPIROXICAM]: the AC50 (at Adenosine receptor A3; at Vasopressin V2 receptor; in test [1]; in test [2]; in test [3]; at Progesterone receptor) was more than 30 µM throughout. Also, the AC50 (on B2 bradykinin receptor; in [4]) was more than 30 µM in each case.
On to `CN1C(=O)OC(C)(C)C1=O` [TRIMETHADIONE], for which the AC50 on Adenosine receptor A3 is more than 10 µM; on Vasopressin V2 receptor, more than 10 µM; in test [1] it was more than 10 µM; in test [2], more than 10 µM; in test [3], more than 30 µM; on Progesterone receptor it was more than 10 µM. The AC50 (on B2 bradykinin receptor; in [4]) was more than 10 µM throughout.
As to `NCC[C@H](O)C(=O)N[C@@H]1C[C@H](N)[C@@H](O[C@H]2O[C@H](CN)[C@@H](O)[C@H](O)[C@H]2O)[C@H](O)[C@H]1O[C@H]1O[C@H](CO)[C@@H](O)[C@H](N)[C@H]1O` [AMIKACIN], the half-maximal activity concentration (AC50) at Adenosine receptor A3 was more than 10 µM; at Vasopressin V2 receptor, more than 10 µM; in [1], more than 10 µM; in test [2] it was more than 10 µM; in test [3], more than 30 µM; on Progesterone receptor, more than 10 µM. Moreover, the AC50 (on B2 bradykinin receptor; in test [4]) was more than 10 µM throughout.
Consider `Cn1c(=O)c2c(ncn2CC2OCCO2)n(C)c1=O` [DOXOFYLLINE], for which the AC50 at Adenosine receptor A3 was more than 30 µM; on Vasopressin V2 receptor, more than 10 µM; in [1], more than 30 µM; in test [2], more than 30 µM; in test [3] it was more than 30 µM; on Progesterone receptor, more than 30 µM. The AC50 (on B2 bradykinin receptor; in test [4]) was more than 30 µM each time.
Take `CC(=O)O[C@H]1CC[C@@]2(C)C(=CC[C@@H]3[C@@H]2CC[C@]2(C)C(c4cccnc4)=CC[C@@H]32)C1` [ABIRATERONE ACETATE]: the AC50 (at Vasopressin V1a receptor; on Adenosine receptor A3; in test [1]; in [2]; in test [3]; on Progesterone receptor) was more than 30 µM throughout. In test [4], the AC50 is more than 30 µM.
On to `C/C(O)=C(\C#N)C(=O)Nc1ccc(C(F)(F)F)cc1` [TERIFLUNOMIDE], for which the AC50 (at Vasopressin V1a receptor; at Adenosine receptor A3; in test [1]; in test [2]; in test [3]; at Progesterone receptor) was more than 30 µM each time. The compound also returned an AC50 in [4] of more than 30 µM.
